Results published in ChEMBL document CHEMBL1148788 (J Med Chem, 2007).

Key:
Format in all cases: functional, cell-based
[1] = Antagonist activity at human alpha7nAChR Y93A mutant co-expressed with human Ric3 in tsA201 cells by FMP assay
[2] = Antagonist activity at human alpha-7 nAChR Y188A mutant coexpressed with human Ric3 in tsA201 cells by FMP assay
[3] = Antagonist activity at human alpha7 nAChR W149Y mutant co-expressed with human Ric3 in tsA201 cells by FMP assay
[4] = Antagonist activity at human alpha7nAChR W149A mutant co-expressed with human Ric3 in tsA201 cells by FMP assay
[5] = Antagonist activity at human alpha-7 nAChR Y195A mutant coexpressed with human Ric3 in tsA201 cells by FMP assay

EC50 ([1]; read-out: EC50): 81 µM
EC50 ([1]; read-out: pEC50 (converted)): 81.3 µM
EC50 ([2]; read-out: EC50): 3900 µM
EC50 ([2]; read-out: pEC50 (converted)): 3890 µM
EC50 ([3]; read-out: EC50): 1500 µM
EC50 ([3]; read-out: pEC50 (converted)): 1580 µM
EC50 ([4]; read-out: EC50): > 30000 µM
EC50 ([4]; read-out: pEC50 (converted)): > 31600 µM
EC50 ([5]; read-out: EC50): 260 µM
EC50 ([5]; read-out: pEC50 (converted)): 257 µM
Compound: CC(=O)OCC[N+](C)(C)C [ACETYLCHOLINE]
